Reference: US20240075004A1, “VERY-LONG-CHAIN POLYUNSATURATED FATTY ACIDS, ELOVANOID HYDROXYLATED DERIVATIVES, AND METHODS OF USE” (The Board of Supervisors of Louisiana State University and …, priority 2020, published 2024)

Experiments:
[1] = system: p16INK4a; experiment: p16INK4a western blots of RPE/Choroid after subretinal OAβ injection; format: in vivo, C57BL/6J WT mice; conditions: elevated by OAβ injection; subretinal co-injection 200 ng with 10 μM OAβ, topical drops 200 nM twice a day; day 7
Protocol: All animal experiments were performed according to ARVO Statement for the Use of Animals in Ophthalmic and Vision Research, and the protocol was approved by LSU Health New Orleans' Institutional Animal Care and Use Committee (IACUC). 6-month-old 5×FAD mice (stock number: 34848-JAX, The Jackson Laboratory, Bar Harbor, ME, USA), co-overexpress FAD mutant forms of human amyloid precursor protein (the Swedish mutation: K670N, M671L; the Florida mutation: I716V; and the London mutation: V7171) and presenilin 1 (PS1, encoded by Psen1: M146L, L286V) transgenes under transcriptional control of the neuron-specific mouse Thy1 promoter. 5×FAD mice were hemizygotes with respect to the transgenes and non-transgenic WT littermates. Genotyping was performed by PCR of tail DNA. All analyses were carried out blind with respect to the mice genotype. For the subretinal injection, 6-month-old C57BL/6J mice were anesthetized by an intraperitoneal injection of ketamine/xylazine, pupils dilated with 1.0% tropicamide (Akorn, IL, USA); and 0.5% Proparacaine Hydrochloride (Akorn) was applied for topical anesthesia. […]
Samples were lysed by RIPA buffer and protein determined by Bradford assay (Bio-Rad, Hercules, CA, USA). […] Densitometry data were statistically analyzed at 95% confidence level.

[2] = system: RPE and PRC; experiment: Subretinal injection of OAβ in WT mice: fundus/OCT and ZO-1 whole flat mount of RPE; format: in vivo, C57BL/6J WT mice; conditions: for PRC degeneration (fundus, OCT): ELV injected alone (200 ng subretinal), six-month-old WT mice, 7 days; for RPE morphology (ZO-1 flat mount) / protection of PRC (OCT, PRC layer thickness): co-injected with OAβ, followed by topical application during 7 days
Protocol: All animal experiments were performed according to ARVO Statement for the Use of Animals in Ophthalmic and Vision Research, and the protocol was approved by LSU Health New Orleans' Institutional Animal Care and Use Committee (IACUC). 6-month-old 5×FAD mice (stock number: 34848-JAX, The Jackson Laboratory, Bar Harbor, ME, USA), co-overexpress FAD mutant forms of human amyloid precursor protein (the Swedish mutation: K670N, M671L; the Florida mutation: I716V; and the London mutation: V7171) and presenilin 1 (PS1, encoded by Psen1: M146L, L286V) transgenes under transcriptional control of the neuron-specific mouse Thy1 promoter. 5×FAD mice were hemizygotes with respect to the transgenes and non-transgenic WT littermates. Genotyping was performed by PCR of tail DNA. All analyses were carried out blind with respect to the mice genotype. For the subretinal injection, 6-month-old C57BL/6J mice were anesthetized by an intraperitoneal injection of ketamine/xylazine, pupils dilated with 1.0% tropicamide (Akorn, IL, USA); and 0.5% Proparacaine Hydrochloride (Akorn) was applied for topical anesthesia. Eyes were punctured with a 30-gauge needle between the corneoscleral junction and the ora serrata into the vitreous cavity without disturbing the lens. Compounds were delivered to the subretinal region using a 33-gauge blunt needle attached to a 5 μl Hamilton syringe (Hamilton Company, Reno, NV, USA) under a dissecting microscope. Non-injected mice were used as negative control while the PBS injected mice were used for sham. The injection volume was 2 μl containing PBS, 10 μM of OAβ, 10 μM of OAβ+200 ng ELV-N-32, 200 ng ELV-N-32 alone, 10 μM of OAβ+200 ng ELV-N-34 or 200 ng ELV-N-34 alone (n=12/group). All groups received topical drops: PBS only or ELV-N-32 (200 nM) or ELV-N-34 (200 nM), twice a day for 3 or 7 days.
For the whole mount RPE staining, eyeballs were enucleated and pre-fixed in 4% PFA for 15 min. Then the eye cup containing RPE sheet were fixed in 4% PFA for 30 min, washed in PBS 3× following the blocking step for 1 h at room temperature. The immunostaining was performed by incubating primary antibody (ZO-1) for 48 h at 4° C. Then the eye cups were washed 3× with PBS and incubated with the secondary antibody for 12 h at 4° C. The primary human RPE cells as well as mouse eye cups were embedded in ProLong™ Gold Antifade Mounting medium (Thermo Fisher Scientific) between two glass coverslips. Pictures were taken with Olympus FV1200 microscope (Olympus, Japan). Images were analyzed by software ImageJ (rsb.info.nih.gov/ij/).
7 days post-injection, mice were anesthetized with ip ketamine/xylazine, pupil dilated by topical 1.0% tropicamide and placed in a custom-built holder for OCT imaging (body temperature maintained at 38° C. with a heat pad). Retinas were imaged along the horizontal meridian through the optic nerve head using a Heidelberg Spectralis HRA OCT system (Heidelberg Engineering, Heidelberg, Germany). Axial resolution is […]. The raw OCT B-scans cross-sectional images were exported with the scale in m and opened in ImageJ (http//imagej.nih.gov/ij). The PRC layer thickness was defined as the width from the tip of the outer nuclear layer, right after the outer plexiform layer, to the outer segments of PRC. Three measurements were made on the same scan and averaged. Mean and standard error of the mean (SEM) were calculated (n=4/group). Students' T-test was used to calculate statistical significance and a P-value less than 0.05 was considered significant.

Compound	expression of the key senescence marker p16INK4a (western blots of RPE/Choroid) [1]	PRC degeneration (fundus, OCT) [2]	RPE morphology (ZO-1 flat mount) [2]	protection of PRC (OCT, PRC layer thickness) [2]
CC/C=C\C[C@H](O)\C=C/C=C/C=C/[C@H](O)C/C=C\C/C=C\CCCCCCCCCCCCC(=O)O [ELV-N-32]	down regulated	did not yield PRC degeneration	restoration of RPE morphology	protection of PRC
CC/C=C\C[C@H](O)\C=C/C=C/C=C/[C@H](O)C/C=C\C/C=C\CCCCCCCCCCCCCCC(=O)O [ELV-N-34]	down regulated	did not yield PRC degeneration	restoration of RPE morphology	protection of PRC
